Results taken from patent US4418068A, “Antiestrogenic and antiandrugenic benzothiophenes” (Eli Lilly and Company, priority 1981, dated 1983).

Tests used:
estrogenic response = assay: Estrogenic Response Test, immature rats (uterine weight); type: in vivo, immature 40-45 g. female rats
Description: The first test reported below is used to determine the estrogenic potency of compounds. It is well known that many compounds having antiestrogenic activity also, typically, have estrogenic activity. As has been explained, estrogenic activity is a liability in an antiestrogen, and thus it is important to identify antiestrogens having a minimum amount of estrogenic activity. This test was conducted with immature 40-45 g. female rats, immature 11-13 g. mice, and adult ovariectomized mice. The rats were tested in groups of six, and mice in groups of ten. All of the laboratory animals were from standardized strains and were equilibrated to the laboratory before the test started. Each test was begun by administering the test compound daily for three days, as a subcutaneous injection or by oral gavage, as indicated below in the reports of individual experiments. Untreated control animals were included in each experiment, along with animals to which estradiol was administered subcutaneously. The estradiol-treated animals provided positive controls, showing the physiological effect of a potent estrogen on the individual group of animals used in the experiment. […] The test animals were treated for three days and sacrificed on the fourth day, and the uteri were removed, freed of extraneous tissue, and blotted with paper towels. The uteri were weighed to the nearest 0.1 mg. The tables below report the results of representative experiments. The doses of estradiol and of the compound of this invention are given as the total of the three daily doses. The uterine weights are given, in mg., as the means of all of the organ weights of the animals in a group. Compounds are referred to by their example numbers above.

[1] = system: estrogenic response of estradiol; assay: Antiestrogenic Test, immature mice (uterine weight); type: in vivo; settings: Experiment B, s.c. + estradiol 0.3 mcg.
Description: This test was conducted with immature 40-45 g. female rats, immature 11-13 g. mice, and adult ovariectomized mice. The rats were tested in groups of six, and mice in groups of ten. All of the laboratory animals were from standardized strains and were equilibrated to the laboratory before the test started. Each test was begun by administering the test compound daily for three days, as a subcutaneous injection or by oral gavage, as indicated below in the reports of individual experiments.
The test animals were treated for three days and sacrificed on the fourth day, and the uteri were removed, freed of extraneous tissue, and blotted with paper towels. The uteri were weighed to the nearest 0.1 mg.
The uterine weights are given, in mg., as the means of all of the organ weights of the animals in a group. Compounds are referred to by their example numbers above.
The same standardized types of laboratory animals which were used in the experiments described above were also used in these experiments. […] Untreated control animals were used in each experiment. […] The dosage and sacrifice schedule, and the method of determining uterine weights and reporting data, were the same as the methods described above under Test 1.

[2] = system: DMBA-induced mammary tumors; assay: Tests Against DMBA-Induced mammary tumors; type: in vivo, adult female virgin rats
Source text: Mammary tumors were induced in adult female virgin rats by a single 20-mg. oral dose of 7,12-dimethylbenzanthracene. Within about six weeks, visible and palpable tumors were present in the mammary tissue of the rats, and the rats were allocated into treatment and control groups in such a way that each group contained animals having approximately the same size and number of tumors. The size of the tumors was estimated by measuring their cross-sectional area. […]
[…] The treated animals received 1 mg./kg. per day of 6-methoxy-2-(4-hydroxyphenyl)-3-[4-(2-piperidinoethoxy)benzoyl]benzo[b]thiophene, hydrochloride, as a subcutaneous injection in corn oil. The animals were not ovariectomized at the end of the experiment.

[3] = system: androgen-stimulated prostate growth; assay: Anti-Androgen Test, immature male rats (ventral prostate weight); type: in vivo
Description: The animals used in this test were adult male rats having a body weight which averaged about 330 g. when the experiment ended. All of the animals to be used in the experiment were castrated by the scrotal route, and were held untreated for 3 days. On the fourth day, subcutaneous administration of 0.1 mg./day of an exogenous androgen, testosterone propionate, was begun, and was continued for seven consecutive days. An untreated control group of animals received injections of 0.1 ml./day of corn oil as a blank treatment. The compound of this invention was administered orally or subcutaneously to the treated animals in 0.1 ml. of corn oil, at the same time that the androgen was administered. The animals were sacrificed 24 hours after the last injection of testosterone propionate, the ventral prostate glands were removed and weighed, and the mean of the weights of each treatment group was reported.
This experiment was carried out in the same manner as Experiment A above, except that the test animals were immature male rats, weighing about 120 g. each at sacrifice. Each treatment group consisted of six or seven animals. All treatments in this experiment were administered by subcutaneous injection. The amount of the androgen administered was only 20 mcg./day because of the small size of the animals.
This experiment was also conducted in immature rats having average body weight of about 115 g. when the experiment ended. In other respects, the experiment was as described under Experiment B above. The treatment groups consisted of ten animals each, except for the androgen only group, of 16 animals, and the 5 mg./kg. group, of nine animals.

[4] = Experiment B, 20 mg./kg./day, orally, four weeks
[5] = Experiment C, low dose 20 mg./kg./day, four weeks

O=C(c1ccc(OCCN2CCCCC2)cc1)c1c(-c2ccc(O)cc2)sc2cc(O)ccc12 [Example 3, 6-hydroxy-2-(4-hydroxyphenyl)-3-[4-(2-piperidinoethoxy)benzoyl]benzo[b]thiophene]
Uterine weight (estrogenic response; Experiment A, total dose 3 mg., s.c.): 33.9 mg | Uterine weight (estrogenic response; Experiment A, total dose 3 mcg., s.c.): 47.7 mg | Uterine weight (estrogenic response; Experiment A, total dose 30 mcg., s.c.): 38.4 mg | Uterine weight (estrogenic response; Experiment A, total dose 300 mcg., s.c.): 35.9 mg | Uterine weight (estrogenic response; Experiment B, total dose 3 mcg., oral (first line)): 34.5 mg | Uterine weight (estrogenic response; Experiment B, total dose 30 mcg., oral): 34.4 mg | Uterine weight (estrogenic response; Experiment B, total dose 300 mcg., oral): 33.2 mg | Uterine weight (estrogenic response; Experiment B, total dose printed 3 mcg., oral (last line)): 34.4 mg | Uterine weight ([1]; 3 mg.): 13.9 mg | Uterine weight ([1]; 0.03 mcg.): 41.3 mg | Uterine weight ([1]; 0.3 mcg.): 40.6 mg | Uterine weight ([1]; 3 mcg.): 26.5 mg | Uterine weight ([1]; 30 mcg.): 18.9 mg | Uterine weight ([1]; 300 mcg.): 14.6 mg | average total cross-sectional area of tumor ([2]; Experiment A, oral 0.1, 5, 10, 20 mg./kg./day in successive two-week periods, 8 weeks): 345 square millimeters | total cross-sectional area of tumor, lower end of range ([2]; Experiment A, oral, 8 weeks): complete regression | total cross-sectional area of tumor, upper end of range ([2]; Experiment A, oral, 8 weeks, one animal, tumors not estrogen-dependent): ≤ 1550 sq. mm. | animals with completely regressed tumors [2, 4]: one of the compound-treated animals had completely regressed | average total tumor area [2, 4]: 152 square millimeters | growth of the large tumor (668 square millimeters) ([2]; Experiment B, 20 mg./kg./day, orally, since second week, shrank after ovariectomy): its growth had been checked, and it had not significantly grown | average tumor area ([2]; Experiment C, high dose 40 mg./kg./day, four weeks): 304 square millimeters | average cross-sectional tumor area [2, 5]: 441 square millimeters | tumor area, lower end of range [2, 5]: no tumors present | tumor area, upper end of range [2, 5]: ≤ 1907 square millimeters | Mean Prostate Weight ([3]; Experiment B, 0.5 mg./kg./day s.c. + androgen 20 mcg./day): 33.8 mg | average prostate weight, one animal excluded ([3]; Experiment B, 0.5 mg./kg./day s.c. + androgen, animal with 54 mg. prostate excluded): 30.5 | Mean Prostate Weight ([3]; Experiment B, 5 mg./kg./day s.c. + androgen 20 mcg./day): 36.6 mg | Mean Prostate Weight ([3]; Experiment C, 0.05 mg./kg./day s.c. + androgen): 34.0 mg | Mean Prostate Weight ([3]; Experiment C, 0.5 mg./kg./day s.c. + androgen): 31.1 mg | Mean Prostate Weight ([3]; Experiment C, 5 mg./kg./day s.c. + androgen): 29.0 mg
